In US20230399341A1, “7-PHENYL SUBSTITUTED 2-AMINOQUINAZOLINE INHIBITORS OF HPK1” (MERCK SHARP & DOHME LLC, priority 2020, published 2023):

Molecular target: T1, Human HPK1, catalytic domain (Homo sapiens, UniProt Q92918)
T1 sequence (Q92918 1-346): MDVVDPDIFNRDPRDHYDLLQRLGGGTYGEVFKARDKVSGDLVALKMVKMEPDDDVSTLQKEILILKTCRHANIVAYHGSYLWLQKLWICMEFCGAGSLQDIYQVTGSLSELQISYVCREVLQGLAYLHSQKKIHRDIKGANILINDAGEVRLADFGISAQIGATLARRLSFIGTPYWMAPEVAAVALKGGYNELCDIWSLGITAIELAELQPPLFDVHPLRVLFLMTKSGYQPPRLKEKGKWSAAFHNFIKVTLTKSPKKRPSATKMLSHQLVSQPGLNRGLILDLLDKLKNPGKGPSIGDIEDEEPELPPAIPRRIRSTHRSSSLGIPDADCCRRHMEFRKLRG
Assay: HPK1-SLP76 TR-FRET Assay
Type: biochemical
Settings: 75 pM HPK1, ATP 10 uM, SLP76 10 nM, 30 min pre-incubation, 60 min reaction

Structure (SMILES)	IC50 [nM]
Cc1c(-c2cc3nc(Nc4ccc(CS(C)(=O)=O)nc4)ncc3c(N)c2F)cnc2c1NCCO2 [Compound 2-84, 6-fluoro-7-(8-methyl-2,3-dihydro-1H-pyrido[2,3-b][1,4]oxazin-7-yl)-N2-(6-((methylsulfonyl)methyl)pyridin-3-yl)quinazoline-2,5-diamine]	0.0222
COc1c(Nc2ncc3c(N)c(F)c(-c4cnc5c(c4C)NCCO5)cc3n2)ccc2c1CCNC(=O)C2 [Compound 2-21]	487
CN1Cc2cc(Nc3ncc4c(N)c(F)c(-c5cnc6c(c5Cl)NCCO6)cc4n3)ccc2C2(CC2)C1 [Compound 2-152, 7-(8-chloro-2,3-dihydro-1H-pyrido[2,3-b][1,4]oxazin-7-yl)-6-fluoro-N~2~-(2′-methyl-2′,3′-dihydro-1′H-spiro[cyclopropane-1,4′-isoquinolin]-7′-yl)quinazoline-2,5-diamine]	0.0714
CCS(=O)(=O)Cc1ccc(Nc2ncc3c(N)c(F)c(-c4cnc5c(c4C)NCC(C)(C)O5)cc3n2)c(F)c1 [Compound 2-144, N~2~-{4-[(ethylsulfonyl)methyl]-2-fluorophenyl}-6-fluoro-7-(3,3,8-trimethyl-2,3-dihydro-1H-pyrido[2,3-b][1,4]oxazin-7-yl)quinazoline-2,5-diamine]	0.232
COc1cc2c(cc1Nc1ncc3c(N)c(F)c(Nc4cc(CO)ccn4)cc3n1)CN(C)CC2 [Compound 3-80, [2-({5-amino-6-fluoro-2-[(6-methoxy-2-methyl-1,2,3,4-tetra-hydroisoquinolin-7-yl)amino]-quinazolin-7-yl}amino)pyridin-4-yl]methanol]	2.81
COC(=O)Cc1ccc(OC)c(Nc2ncc3c(N)c(F)c(-c4cnc5c(c4C)NCCO5)cc3n2)c1 [Compound 2-3, methyl (3-{[5-amino-6-fluoro-7-(8-methyl-2,3-dihydro-1H-pyrido[2,3-b][1,4]oxazin-7-yl)quinazolin-2-yl]amino}-4-methoxyphenyl)acetate]	323
COc1cc2c(cc1Nc1ncc3c(N)c(F)c(-c4cnc5c(c4C)NCCO5)c(Cl)c3n1)CN(C(C)C)CC2 (single isomer, unassigned) [Compound 2-105, (+ or −)-8-chloro-6-fluoro-N2-(2-isopropyl-6-methoxy-1,2,3,4-tetrahydroisoquinolin-7-yl)-7-(8-methyl-2,3-dihydro-1H-pyrido[2,3-b][1,4]oxazin-7-yl)quinazoline-2,5-diamine]	0.0714
COc1cc2c(cc1Nc1ncc3ccc(-c4cccc(C(N)=O)c4)cc3n1)CN(C)CC2 [Compound 1-101, 3-{2-[(6-methoxy-2-methyl-1,2,3,4-tetrahydroisoquinolin-7-yl)amino]quinazolin-7-yl}benzamide]	130
COc1cc2c(cc1Nc1ncc3ccc(-c4cccc(C5CCC(=O)N5)c4)cc3n1)CN(C)CC2 (racemic) [Compound 1-99, (R and S)-5-(3-{2-[(6-methoxy-2-methyl-1,2,3,4-tetrahydroisoquinolin-7-yl)amino]quinazolin-7-yl}phenyl)pyrrolidin-2-one]	120
COc1ccncc1Nc1ncc2c(N)c(F)c(-c3cnc4c(c3C)NCCO4)cc2n1 [Compound 2-20, 6-fluoro-N~2~-(4-methoxypyridin-3-yl)-7-(8-methyl-2,3-dihydro-1H-pyrido[2,3-b][1,4]oxazin-7-yl)quinazoline-2,5-diamine]	76.1
COc1cc2c(cc1Nc1ncc3ccc(N4CC(O)(C(F)(F)F)C4)cc3n1)CN(C)CC2 (racemic) [Compound 3-54, (S and R)-1-12-[(6-methoxy-2-methyl-1,2,3,4-tetrahydroiso-quinolin-7-yl)amino]quinazolin-7-yl}-3-(trifluoromethyl)azet-idin-3-ol]	189
COc1cc2c(cc1Nc1ncc3c(N)c(F)c(-c4cnc(-c5ncco5)cc4C)cc3n1)CN(C)CC2 [Compound 2-61, 6-fluoro-N~2~-(6-methoxy-2-methyl-1,2,3,4-tetrahydroisoquinolin-7-yl)-7-[4-methyl-6-(1,3-oxazol-2-yl)pyridin-3-yl]quinazoline-2,5-diamine]	1.27
Cc1c(-c2cc3nc(Nc4ccc(C(C)S(C)(=O)=O)cc4)ncc3cc2F)cnc2c1NCCO2 (single isomer, unassigned) [Compound 1-124, (R or S)-6-fluoro-7-(8-methyl-2,3-dihydro-1H-pyrido[2,3-b][1,4]oxazin-7-yl)-N-{4-[1-(methylsulfonyl)ethyl]phenyl} quinazolin-2-amine]	0.0411
COc1cc2c(cc1Nc1ncc3ccc(-c4cnc5[nH]c(=O)[nH]c5c4)cc3n1)CN(C)CC2 [Compound 1-106, 6-{2-[(6-methoxy-2-methyl-1,2,3,4-tetrahydroisoquinolin-7-yl)amino]quinazolin-7-yl}-1,3-dihydro-2H-imidazo[4,5-b]pyridin-2-one]	44.1
COc1cc2c(cc1Nc1ncc3ccc(-c4cncc(N)c4C)cc3n1)CN(C)CC2 [Compound 1-3, 7-(5-amino-4-methylpyridin-3-yl)-N-(6-methoxy-2-methyl-1,2,3,4-tetrahydroisoquinolin-7-yl)quinazolin-2-amine]	1.52
C[C@H]1COC(=O)N1c1cc(N)c2cnc(Nc3ccc(S(C)(=O)=O)cc3)nc2c1 [Compound 3-76, (S)-3-(5-amino-2-((4-(methyl-sulfonyl)phenyl)amino)quinaz-olin-7-yl)-4-methyloxazolidin-2-one]	0.101
Cc1c(-c2cc3nc(Nc4ccc5c(c4)CN(C)C(C)C5)ncc3c(N)c2F)cnc2c1NCCO2 (single isomer, unassigned) [Compound 2-86, (R or S)—N2-(2,3-dimethyl-1,2,3,4-tetrahydroisoquinolin-7-yl)-6-fluoro-7-(8-methyl-2,3-dihydro-1H-pyrido[2,3-b][1,4]oxazin-7-yl)quinazoline-2,5-diamine]	0.0382
Cc1c(-c2cc3nc(Nc4ccc5c(c4)CCS(=O)(=O)C5)ncc3c(N)c2F)cnc2c1NCCO2 [Compound 2-138, 6-{[5-amino-6-fluoro-7-(8-methyl-2,3-dihydro-1H-pyrido[2,3-b][1,4]oxazin-7-yl)quinazolin-2-yl]amino}-3,4-dihydro-2-benzothiopyran-2,2(1H)-dione]	0.068
Cc1c(-c2cc3nc(Nc4ccc(CC(N)=O)cc4)ncc3cc2F)cnc2c1NCCO2 [Compound 1-131, 2-(4-{[6-fluoro-7-(8-methyl-2,3-dihydro-1H-pyrido[2,3-b][1,4]oxazin-7-yl)quinazolin-2-yl]amino}phenyl)acetamide]	0.165
COc1cc2c(cc1Nc1ncc3ccc(-c4cncc5[nH]ccc45)cc3n1)CNCC2 [Compound 1-45, N-(6-methoxy-1,2,3,4-tetrahydroisoquinolin-7-yl)-7-(1H-pyrrolo[2,3-c]pyridin-4-yl)quinazolin-2-amine]	0.885
COc1cc2c(cc1Nc1ncc3ccc(N4CC(CN)OC4=O)cc3n1)CN(C)CC2 (racemic) [Compound 3-11, (S and R)-5-(aminomethyl)-3-{2-[(6-methoxy-2-methyl-1,2,3,4-tetrahydroisoquinolin-7-yl)amino]quinazolin-7-yl}-1,3-oxazolidin-2-one]	82.4
COc1cc2c(cc1Nc1ncc3ccc(Nc4ccc5c(c4)C(=O)N(C)C5)cc3n1)CN(C)CC2 [Compound 3-23, 6-({2-[(6-methoxy-2-methyl-1,2,3,4-tetrahydroisoquinolin-7-yl)amino]quinazolin-7-yl}-amino)-2-methyl-2,3-dihydro-1H-isoindol-1-one]	46.3
COc1cc2c(cc1Nc1ncc3c(N)c(F)c(-c4cnc5c(c4C)NCCO5)cc3n1)C(C)N(C)CC2 (single isomer, unassigned) [Compound 2-36, (S or R)-6-fluoro-N^2-(6-methoxy-1,2-dimethyl-1,2,3,4-tetrahydroisoquinolin-7-yl)-7-(8-methyl-2,3-dihydro-1H-pyrido[2,3-b][1,4]oxazin-7-yl)quinazoline-2,5-diamine]	0.101
COc1cc2c(cc1Nc1ncc3ccc(-c4cc(S(=O)(=O)N(C)C)ccc4C)cc3n1)CNCC2 [Compound 1-79, 3-{2-[(6-methoxy-1,2,3,4-tetrahydroisoquinolin-7-yl)amino]quinazolin-7-yl}-N,N,4-trimethylbenzene-1-sulfonamide]	148
COc1cc2c(cc1Nc1ncc3ccc(-c4cccc5c4CCNC5)cc3n1)CN(C)CC2 [Compound 1-6, N-(6-methoxy-2-methyl-1,2,3,4-tetrahydroisoquinolin-7-yl)-7-(1,2,3,4-tetrahydroisoquinolin-5-yl)quinazolin-2-amine]	92.2
COc1cc2c(cc1Nc1ncc3ccc(-c4cccc(O)c4)cc3n1)CNCC2 [Compound 1-59, 3-{2-[(6-methoxy-1,2,3,4-tetrahydroisoquinolin-7-yl)amino]quinazolin-7-yl}phenol]	36.2
COc1cc2c(cc1Nc1ncc3ccc(N4CC5(CCOC5)OC4=O)cc3n1)CN(C)CC2 (racemic) [Compound 3-3, (S and R)-3-{2-[(6-methoxy-2-methyl-1,2,3,4-tetrahydroiso-quinolin-7-yl)amino]quinazolin-7-yl}-1,7-dioxa-3-azaspiro[4.4]-nonan-2-one]	391
Cc1c(-c2cc3nc(Nc4ccccc4OC(F)(F)F)ncc3c(N)c2F)cnc2c1NCCO2 [Compound 2-8, 6-fluoro-7-(8-methyl-2,3-dihydro-1H-pyrido[2,3-b][1,4]oxazin-7-yl)-N~2~- [2-(trifluoromethoxy)phenyl] quinazoline-2,5-diamine]	116
Cc1c(-c2cc3nc(Nc4cccc5c4CC(C)(C)N(C)C5)ncc3c(N)c2F)cnc2c1NCCO2 (single isomer, unassigned) [Compound 2-127]	100
